± gives the standard deviation of the averaged measurements. Where only a bound is given, the exact number is not on record here.

The test system of assay [1] is CHO-K1. Description: benchmark concentration for 60% increase in hypodiploid frequency (BMC60); higher = less potent aneugen. A digest of the protocol:
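CHO cells were exposed to 19 concentrations (4.50–200 µM; 1% DMSO vehicle) for 24 h at 37 °C without S9, or 3–4 h with Aroclor 1254-induced rat liver S9 then 24 h recovery. Hypodiploid nuclei percentage was measured by flow cytometry; concentrations with relative survival below 40% were excluded, and benchmark response was a 60% increase over DMSO control. The benchmark concentration was fitted in PROAST with Hill and exponential model families.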

Assay [2] has as its system CHO-K1. Description: benchmark concentration for 30% increase in micronucleus frequency (BMC30); higher = less potent clastogen. As for the experimental part:
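Benchmark concentration modelling (PROAST, Hill/exponential model families) of the 19-concentration flow-cytometric micronucleus assay in CHO-K1 cells, with and without rat liver S9. Only non-cytotoxic and adequate (relative survival >=40%) concentrations were used. BMR was a 30% increase in %MN (BMC30) or a 60% increase in %hypodiploid (BMC60) over control.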

[3] abbreviates: S9 metabolic activation: without S9.
[4] abbreviates: S9 metabolic activation: with S9.

Take `CN(Cc1cnc2nc(N)nc(N)c2n1)c1ccc(C(=O)N[C@@H](CCC(=O)O)C(=O)O)cc1` [Methotrexate]: the figures for the benchmark concentration in assay [1] (setting [3]) and in assay [2] (setting [3]) were 59 µM and 51 µM, respectively.

In the case of `CCSC(=O)N1CCCCCC1` [Molinate], the benchmark concentration in assay [1] (setting [3]) was found to be 61.5 ± 3.5 µM; in assay [2] (setting [4]), 41 µM.

For `C[C@]12CC[C@@H]3c4ccc(O)cc4CC[C@H]3[C@@H]1CCC2=O` [Estrone], the benchmark concentration was 5.3 µM in assay [1] (setting [3]) and below 4.5 µM in assay [2] (setting [3]).

Consider `ClC(Cl)=C(c1ccc(Cl)cc1)c1ccc(Cl)cc1` [p,p'-DDE], for which the benchmark concentration in assay [1] (setting [3]) was 16 µM; in assay [2] (setting [4]) it was 51 µM; in assay [2] (setting [3]) it was 29 µM.

Take `OCc1ccccc1` [Benzyl alcohol]: the benchmark concentration in assay [1] (setting [3]) worked out at 93 µM; in assay [2] (setting [3]), 43 µM.

As to `O=C(O)C(Cl)Cl` [Dichloroacetic acid], the benchmark concentration in assay [1] (setting [3]) worked out at 95 µM; in assay [2] (setting [3]) it was 94 µM.

As for `OCCCBr` [3-Bromo-1-propanol], the figures for the benchmark concentration in assay [1] (setting [3]) and in assay [2] (setting [3]) were 73 µM and 110 µM, respectively.

Take `Nc1ccc2c(c1)C(=O)c1ccccc1C2=O` [2-Aminoanthraquinone]: the benchmark concentration in assay [1] (setting [4]) worked out at 22 µM; in assay [1] (setting [3]) it was 29 µM; in assay [2] (setting [4]), 8.1 µM.

As to `Cc1ccc2ncccc2c1` [6-Methylquinoline], the benchmark concentration in assay [1] (setting [4]) was 51 µM; in assay [1] (setting [3]), 120 µM; in assay [2] (setting [4]), 22 µM.

As for `O=C(O)C1=NN(c2ccc(S(=O)(=O)O)cc2)C(=O)C1N=Nc1ccc(S(=O)(=O)O)cc1` (configuration not stated) [FD&C Yellow 5], the benchmark concentration turned out to be 47 µM in assay [1] (setting [3]), 15 µM in assay [2] (setting [4]) and 25 µM in assay [2] (setting [3]).

Regarding `Oc1ccc(O)cc1` [Hydroquinone], the benchmark concentration in assay [1] (setting [4]) stood at 90 µM; in assay [2] (setting [4]), 63 µM.

Regarding `CCN(CC)N=O` [N-Nitrosodiethylamine], the benchmark concentration was 31 µM in assay [1] (setting [3]) and 21 µM in assay [2] (setting [3]).

Take `NC(=O)NO` [Hydroxyurea]: the benchmark concentration was 29 µM in assay [1] (setting [3]) and 19 µM in assay [2] (setting [3]).

With `O=C(c1ccccc1)c1ccccc1` [Benzophenone], the benchmark concentration was 28 µM in assay [1] (setting [3]) and 59 µM in assay [2] (setting [3]).

On to `Oc1ccc(Cl)cc1Cl` [2,4-Dichlorophenol], for which the benchmark concentration was found to be 20 µM in assay [1] (setting [3]), 17 µM in assay [2] (setting [4]) and 17 µM in assay [2] (setting [3]).

As to `CCCCC=O` [Pentanal], the results for the benchmark concentration in assay [1] (setting [3]) and in assay [2] (setting [4]) were 140 µM and 60 µM, respectively.

Take `CCC(C)c1ccccc1O` (configuration not stated) [2-(Butan-2-yl)phenol]: the figures for the benchmark concentration in assay [1] (setting [4]), in assay [1] (setting [3]) and in assay [2] (setting [4]) were 30 µM, 170 µM and 23 µM, respectively.

`CN(C)c1ccc(C(=C2C=CC(=[N+](C)C)C=C2)c2ccc(N(C)C)cc2)cc1` [Gentian Violet]: the results for the benchmark concentration in assay [1] (setting [4]) and in assay [2] (setting [4]) were 0.23 µM and 0.91 µM, respectively.

Regarding `O=S1(=O)CCCO1` [1,3-Propane sultone], the benchmark concentration turned out to be 80 µM in assay [1] (setting [3]) and 110 µM in assay [2] (setting [3]).

`O=C(OC[C@H]1O[C@@H](OC(=O)c2cc(O)c(O)c(OC(=O)c3cc(O)c(O)c(O)c3)c2)[C@H](OC(=O)c2cc(O)c(O)c(OC(=O)c3cc(O)c(O)c(O)c3)c2)[C@@H](OC(=O)c2cc(O)c(O)c(OC(=O)c3cc(O)c(O)c(O)c3)c2)[C@@H]1OC(=O)c1cc(O)c(O)c(OC(=O)c2cc(O)c(O)c(O)c2)c1)c1cc(O)c(O)c(OC(=O)c2cc(O)c(O)c(O)c2)c1` [Tannic acid]: the values for the benchmark concentration in assay [1] (setting [4]), in assay [1] (setting [3]) and in assay [2] (setting [4]) were 1.3 µM, 0.84 µM and 0.9 µM, respectively.

For `CC(C)(C)c1cc(O)ccc1O` [tert-Butylhydroquinone], the benchmark concentration in assay [1] (setting [4]) was 23 µM; in assay [2] (setting [4]) it was 22 µM.

As to `O=[N+]([O-])c1ccc(O)c([N+](=O)[O-])c1` [2,4-Dinitrophenol], the benchmark concentration in assay [1] (setting [3]) came out at 49 µM; in assay [2] (setting [3]) it was 86 µM.

`Cc1cc(-c2ccc(N)c(C)c2)ccc1N` [3,3'-Dimethylbenzidine]: the benchmark concentration in assay [1] (setting [3]) amounted to 20 µM; in assay [2] (setting [3]), 99 µM.

Regarding `Nc1ccc(Oc2ccc(N)cc2)cc1` [4,4'-Oxydianiline], the benchmark concentration was found to be 31 µM in assay [1] (setting [3]) and 60 µM in assay [2] (setting [3]).

Regarding `Oc1ccccc1` [Phenol], the benchmark concentration in assay [1] (setting [3]) was 57 µM; in assay [2] (setting [3]), 100 µM.

Consider `c1ccc(/N=N/c2ccccc2)cc1` [Azobenzene], for which the benchmark concentration in assay [1] (setting [4]) came to 37 µM; in assay [1] (setting [3]), 87 µM; in assay [2] (setting [4]) it was 32 µM.

Turning to `Nc1cccc2c(N)cccc12` [1,5-Naphthalenediamine], the values for the benchmark concentration in assay [1] (setting [3]) and in assay [2] (setting [4]) were 66 µM and 8.6 µM, respectively.

(Values after the supplement of paper PMC9151546.)
